{"source": "patent US8481544B2", "about": "“Antibacterial compositions” (Biota Europe Limited, priority 2006, dated 2013)", "key": {"[1]": {"system": "Enterococcus faecalis ATCC 29212", "assay": "MIC against Enterococcus faecalis ATCC 29212", "assay_type": "cell-based", "details": "ATCC29212; Enterococcus faecalis ATCC 29212; read-out: MICs against Enterococcus faecalis, Activity", "in_short": "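MIC measured by broth microdilution or agar dilution following CLSI guidelines (M7-A7 for aerobes, M11-A6 for anaerobes).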"}, "Staphylococcus aureus": {"system": "Staphylococcus aureus", "assay": "mouse Staphylococcus aureus septicaemia model of infection, survival at day 7", "assay_type": "in vivo", "details": "1 and 6 hours after inoculation", "experimental": "Some of the Example compounds were also tested for activity in a mouse Staphylococcus aureus septicaemia model of infection."}}, "data": [{"smiles": "CCNC(=O)Nc1nc2cc(-c3cccnc3)cc(Br)c2s1", "note": "[Example 3, 1-(7-Bromo-5-pyridin-3-yl-benzothiazol-2-yl)-3-ethyl-urea]", "values": [{"measurement": "MIC", "setting": "[1]", "result": "0.25 to 1", "unit": "µg/mL"}, {"measurement": "melting point", "result": 345, "unit": "°C"}]}, {"smiles": "CCOC(=O)Nc1nc2cc(-c3cccnc3)cc(-c3ccccn3)c2s1", "note": "[Example 174, (5-Pyridin-3-yl-7-pyridin-2-yl-benzothiazol-2-yl)-carbamic acid ethyl ester]", "values": [{"measurement": "MIC", "setting": "[1]", "result": "< 0.25", "unit": "µg/mL"}, {"measurement": "melting point", "result": 235, "unit": "°C"}]}, {"smiles": "CCNC(=O)Nc1nc2cc(-c3cccnc3)cc(-c3cccc(C(F)(F)F)n3)c2s1", "note": "[Example 89, 1-Ethyl-3-[5-pyridin-3-yl-7-(6-trifluoromethyl-pyridin-2-yl)-benzothiazol-2-yl]-urea]", "values": [{"measurement": "MIC", "setting": "[1]", "result": "< 0.25", "unit": "µg/mL"}, {"measurement": "melting point", "result": 256.7, "unit": "°C"}]}, {"smiles": "CCNC(=O)Nc1nc2cc(-c3cccnc3)cc(-c3cccnc3)c2s1", "note": "[Example 4, 1-(5,7-Di-pyridin-3-yl-benzothiazol-2-yl)-3-ethyl-urea]", "values": [{"measurement": "Percent survival", "setting": "Staphylococcus aureus; 2 × 100 mg/kg intraperitoneal", "result": 100}, {"measurement": "MIC", "setting": "[1]", "result": "0.25 to 1", "unit": "µg/mL"}]}, {"smiles": "CCNC(=O)Nc1nc2cc(-c3cccnc3)cc(-c3ccc[nH]3)c2s1", "note": "[Example 90, 1-Ethyl-3-[5-pyridin-3-yl-7-(1H-pyrrol-2-yl)-benzothiazol-2-yl]-urea]", "values": [{"measurement": "MIC", "setting": "[1]", "result": "0.25 to 1", "unit": "µg/mL"}, {"measurement": "melting point", "result": 220, "unit": "°C"}]}, {"smiles": "CCNC(=O)Nc1nc2cc(-c3cccnc3)cc(-c3ccc(C)cn3)c2s1", "note": "[Example 175, 1-Ethyl-3-[7-(5-methyl-pyridin-2-yl)-5-pyridin-3-yl-benzothiazol-2-yl]-urea]", "values": [{"measurement": "MIC", "setting": "[1]", "result": "< 0.25", "unit": "µg/mL"}, {"measurement": "melting point", "result": 231, "unit": "°C"}]}, {"smiles": "CCNC(=O)Nc1nc2cc(-c3cccnc3)cc(-c3ncccc3F)c2s1", "note": "[Example 91, 1-Ethyl-3-[7-(3-fluoro-pyridin-2-yl)-5-pyridin-3-yl-benzothiazol-2-yl]-urea]", "values": [{"measurement": "Percent survival", "setting": "Staphylococcus aureus; 2 × 30 mg/kg intraperitoneal", "result": 100}, {"measurement": "MIC", "setting": "[1]", "result": "< 0.25", "unit": "µg/mL"}]}, {"smiles": "CCNC(=O)Nc1nc2cc(-c3cccnc3)cc(-c3cccc(OC)n3)c2s1", "note": "[Example 167, 1-Ethyl-3-[7-(6-methoxy-pyridin-2-yl)-5-pyridin-3-yl-benzothiazol-2-yl]-urea]", "values": [{"measurement": "MIC", "setting": "[1]", "result": "< 0.25", "unit": "µg/mL"}, {"measurement": "melting point", "result": 300.1, "unit": "°C"}]}, {"smiles": "CCNC(=O)Nc1nc2cc(-c3cccnc3)cc(-c3cccc(Cl)n3)c2s1", "note": "[Example 88, 1-[7-(6-Chloro-pyridin-2-yl)-5-pyridin-3-yl-benzothiazol-2-yl]-3-ethyl-urea]", "values": [{"measurement": "MIC", "setting": "[1]", "result": "< 0.25", "unit": "µg/mL"}, {"measurement": "melting point", "result": 249.9, "unit": "°C"}]}, {"smiles": "CCNC(=O)Nc1nc2cc(-c3cccnc3)cc(-c3ccc(CO)cn3)c2s1", "note": "[Example 96, 1-Ethyl-3-[7-(5-hydroxymethyl-pyridin-2-yl)-5-pyridin-3-yl-benzothiazol-2-yl]-urea]", "values": [{"measurement": "MIC", "setting": "[1]", "result": "< 0.25", "unit": "µg/mL"}]}, {"smiles": "CCNC(=O)Nc1nc2cc(-c3cccnc3)cc(-c3cncnc3)c2s1", "note": "[Example 159, 1-Ethyl-3-(5-pyridin-3-yl-7-pyrimidin-5-yl-benzothiazol-2-yl)-urea]", "values": [{"measurement": "MIC", "setting": "[1]", "result": "0.25 to 1", "unit": "µg/mL"}]}, {"smiles": "CCNC(=O)Nc1nc2cc(-c3cnc4c(c3)CNCC4)cc(-c3ccccn3)c2s1", "note": "[Example 65, 1-Ethyl-3-[7-pyridin-2-yl-5-(5,6,7,8-tetrahydro-[1,6]naphthyridin-3-yl)-benzothiazol-2-yl]-urea]", "values": [{"measurement": "MIC", "setting": "[1]", "result": "0.25 to 1", "unit": "µg/mL"}]}, {"smiles": "CCNC(=O)Nc1nc2cc(-c3cccnc3)cc(-c3cc(OC)ccn3)c2s1", "note": "[Example 112, 1-Ethyl-3-[7-(4-methoxy-pyridin-2-yl)-5-pyridin-3-yl-benzothiazol-2-yl]-urea]", "values": [{"measurement": "MIC", "setting": "[1]", "result": "< 0.25", "unit": "µg/mL"}]}]}
